Measurements taken from patent publication US20210009551A1, “COMPOUNDS AND METHODS FOR TREATING FIBROSIS OR CANCER” (THE REGENTS OF THE UNIVERSITY OF CALIFORNIA, priority 2016, published 2021).

Tests used:
[1] = test system: C57BL/6 mice, intratracheal bleomycin; assay: Bleomycin fibrosis model; type: in vivo; conditions: daily gavage 100 mg/kg from day 10 after bleomycin, day 21
Protocol: For histological assessment of lung collagen, frozen sections of the left lung were stained using Masson's Trichrome stain kit (American MasterTech, Lodi, Calif., USA).
Bleomycin fibrosis model. Eight-week old C57BL/6 mice were intratracheally instilled with saline or 1.9 units/kg of bleomycin (Sigma-Aldrich). Mice were implanted with osmotic pumps loaded with ellagic acid salt (24 mg/kg/day, Day 10-Day 17), fed with red raspberry diet (Day 0-Day 21), or gavaged with corilagin (100 mg/kg, Day 10-Day 21). Controls were treated with control pump, control diet, or vehicle in the same formulation. The lungs were lavaged and followed by OCT embedding for imaging or snap freezing in liquid nitrogen for protein extraction or hydroxyproline assay.
Collagen content Lung or aorta collagen content was evaluated using hydroxyproline assay. Briefly, whole left lung tissue or aorta was hydrolyzed in 1 ml 12N HCl at 110° C. for 24 h and the hydroxyproline was detected by incubating with Chloramine T and p-dimethylaminobenzaldehyde and the absorbance was measured at 550 nm. Each sample was run in triplicate. Collagen content in lung or aorta tissues was expressed as micrograms of collagen per lung or aorta and was converted from micrograms of hydroxyproline.

[2] = Bronchoalveolar lavage: immune cells and injury markers; type: in vivo; conditions: BALF, bleomycin or saline treated mice
Protocol: Bronchoalveolar lavage. After the trachea was exposed, a 20-G catheter was inserted into the trachea through a small incision. 1 ml cold PBS was instilled into the mouse lungs followed by gentle aspiration repeated for three times. All the bronchoalveolar lavage fluid (BALF) was centrifuged and cell pellet was re-suspended in erythrocyte (RBC) lysis buffer (Sigma, St. Louis) followed by re-centrifugation. Cell number was counted using hemocytometer. Cell types of BALF were determined by morphology following Diff-quick stain of cytospin slides. About 500 cells were counted for each sample in order to determine the cell types. Macrophages account for more than 80% of the cells in BALF and were collected by centrifugation. After centrifugation, the supernatant was collected to measure total protein content using the BCA assay (Pierce), while the cell pellet was lysed for immunoblotting or RNA isolation.

human LOXL2 = molecular target: T1, human LOXL2 (Homo sapiens, UniProt Q9Y4K0); assay: LOXL2-induced stabilization of snail 1 protein in NMuMG cells; type: cell-based; set-up: Flag (C); expressed in transfected cells; host or cells: NMuMG cells; conditions: 0.5 μM, 24 h
T1 sequence (Q9Y4K0 26-774): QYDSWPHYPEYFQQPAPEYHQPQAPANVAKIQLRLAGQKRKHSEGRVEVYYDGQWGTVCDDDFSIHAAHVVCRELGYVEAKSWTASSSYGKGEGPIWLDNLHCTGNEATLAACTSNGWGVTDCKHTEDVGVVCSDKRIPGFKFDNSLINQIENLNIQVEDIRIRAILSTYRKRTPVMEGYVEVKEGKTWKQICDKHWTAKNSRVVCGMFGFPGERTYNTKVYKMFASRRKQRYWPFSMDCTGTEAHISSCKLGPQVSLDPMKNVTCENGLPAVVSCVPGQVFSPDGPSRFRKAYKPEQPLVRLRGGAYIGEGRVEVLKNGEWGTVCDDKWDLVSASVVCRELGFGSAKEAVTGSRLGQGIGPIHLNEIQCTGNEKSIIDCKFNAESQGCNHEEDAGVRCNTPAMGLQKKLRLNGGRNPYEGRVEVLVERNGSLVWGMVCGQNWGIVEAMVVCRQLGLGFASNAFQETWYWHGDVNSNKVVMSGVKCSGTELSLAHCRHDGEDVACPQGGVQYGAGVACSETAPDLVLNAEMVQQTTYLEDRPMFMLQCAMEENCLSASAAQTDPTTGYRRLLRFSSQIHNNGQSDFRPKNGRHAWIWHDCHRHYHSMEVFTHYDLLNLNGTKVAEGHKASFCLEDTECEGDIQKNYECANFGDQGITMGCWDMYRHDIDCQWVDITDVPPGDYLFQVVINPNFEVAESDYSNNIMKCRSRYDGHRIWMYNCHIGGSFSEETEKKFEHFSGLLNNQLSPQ
Protocol: Immunoblot. Pulverized tissue and cells were lysed in RIP A buffer (150 mM NaCl, 50 mM Tris, pH 8.0, 1% Triton X-100, 0.5% sodium deoxycholate, 0.1% SDS, supplemented with protease and phosphatase inhibitors) and analyzed by immunoblotting. Densitometry was quantified using NIH Imaged software.

[3] = Plasma level of corilagin, LC/MS analysis; type: in vivo, mice; conditions: C57BL/6, mouse, 2 hrs after the last oral dose of 100 mg/kg, day 21, read-out: average circulating level
Protocol: Plasma level of corilagin—LC/MS analysis. Corilagin in C57BL/6 mice two hours following last oral administration at day 21 was analyzed. Blood samples (˜500 μL/sample) were collected via cardiac puncture. Samples were placed in tubes containing heparin sodium and stored on ice until centrifuged for plasma.

LOXL2-low HaCaT cells = assay: Corilagin level in conditioned medium by LC-MS, HaCaT; type: in vitro ADME; conditions: 1 μM, 5 hrs

## O=C(O[C@@H]1O[C@@H]2COC(=O)c3cc(O)c(O)c(O)c3-c3c(cc(O)c(O)c3O)C(=O)O[C@H]([C@H]1O)[C@@H]2O)c1cc(O)c(O)c(O)c1 [corilagin, Corilagin]
[1]
  bleomycin-induced total lung collagen, fibronectin, snail 1, and p-smad3: marked attenuation
[2]
  immune cell numbers or markers of injury: no effect
Human LOXL2
  LOXL2-induced stabilization of snail 1 protein: blocked
[3]
  concentration at 2 h: 80 nM
LOXL2-low HaCaT cells
  corilagin concentration in conditioned medium: not
